We go through two compounds from ChEMBL document CHEMBL1159383, “Tasipeptins A and B: new cytotoxic depsipeptides from the marine cyanobacterium Symploca sp” (J Nat Prod, 2003).

The subject of this test is KB. As to the kind of experiment: Cytotoxicity against human KB cells. The class given is functional, cell-based.

Regarding `CCCC(=O)N[C@H](C(=O)N[C@@H]1C(=O)N[C@@H](CC(C)C)C(=O)N[C@H]2CC[C@@H](O)N(C2=O)[C@@H](CC(C)C)C(=O)N(C)[C@@H](Cc2ccccc2)C(=O)N[C@@H](C(C)C)C(=O)O[C@@H]1C)C(C)C` [TASIPEPTIN A], the IC50 was found to be 930 nM. To `CCCC(=O)N[C@@H]1C(=O)N[C@@H](CC(C)C)C(=O)N[C@H]2CC[C@@H](O)N(C2=O)[C@@H](CC(C)C)C(=O)N(C)[C@@H](Cc2ccccc2)C(=O)N[C@@H](C(C)C)C(=O)O[C@@H]1C` [TASIPEPTIN B] belongs 820 nM.
